Values quoted from earlier work, collected in patent publication US20240315940A1, “Topical Nourishing/Antimicrobial Compositions” (Laboratory Skin Care, Inc., priority 2021, published 2024).

System: bacteria, fungi, Pseudomonas aeruginosa, Pseudomonas capacia, Staphylococcus aureus, Escherichia coli, Candida albicans, Aspergillus niger, Salmonella …
Conditions: whole genera of microorganisms

## Oc1cc(Cl)ccc1Oc1ccc(Cl)cc1Cl [triclosan]
  effectiveness against microorganisms: effective
